Test results from patent US8476036B2, “Nonluminogenic assay for living cells” (Promega Corporation, priority 2004, dated 2013).
Where a name gives a salt, the structure may show the parent alone. Read-outs that look alike come from different tables or passages of the source. Square brackets hold non-standard residues; d marks the D form. Peptide text beside a SMILES is read from it. * marks the point of attachment. Sta = CC(C)C[C@H](N)[C@@H](O)CC(=O)O; Isovaleryl = CC(C)CC(=O)*

Assays:
HL-60, SK-MEL-28, U937 = assay: Protease release assay inhibitor/adjuncts survey with Ala-Ala-Phe-AMC; type: cell-based; settings: for Comments: extent of the effect on release activity, in words
From the text: (§1) Puromycin, E-64, Phenylmethanesulfonyl fluoride (PMSF), Adenosine 5′-triphosphate (ATP), N-(α-Rhamnopyranosyloxyhyrdoxyphosphinyl)-Leu-Trp disodium salt (Phosphoramidon), N-[(2S,3R)-3-Amino-2-hydroxy-4-phenylbutyryl-L-leucine hydrochloride (Bestatin), 1,10-Phenathroline, […], 4-(2-Aminoethyl)benzenesulfonyl fluoride (AEBSF), 1,4-Dithio-DL-threitol (DTT), Edetate disodium dihyrdrate (EDTA), Isovaleryl-L-valyl-L-valyl-[(3S,4S)-4-amino-3-hydroxy-6-methylheptanoyl]-L-alanyl[93S,4S]-4-amino-3-hydroxy-6-methylheptanoicacid (Pepstatin A), sodium chloride, Aprotinin, N-Acetyl-L-leucyl-L-leucyl-L-argininal hemisulfate salt (leupeptin) were all purchased from Sigma. Inhibitors were resuspended in DMSO to varying stock concentrations with a high target concentration of 200 μM or 200 μg/ml in Dulbecco's Phosphate Buffer Saline w/o Mg^++ or Ca^++ (DPBS) for addition to either lysates or viable cell populations. DTT, NaCl, EDTA, and ATP were also diluted in DPBS. All compounds were incubated with compromised or viable cells for a period of at least 30 minutes (most 60 minutes) at 37° C. prior to assessment of activity.
(§2) The protease retention assay inhibitor/adjuncts survey was conducted on sonicated, saponin-lysed, or viable HL-60 and/or U937 using Gly-Phe-AFC at 100 μM final concentration as described previously. The protease release assay inhibitor/adjuncts survey was conducted on sonicated, saponin-lysed, or viable HL-60, SK-MEL-28, and/or U937 using Ala-Ala-Phe-AMC or (Ala-Ala-Phe)2-Rhodamine 110.

HL-60 and/or U937 = assay: Protease retention assay inhibitor/adjuncts survey with Gly-Phe-AFC; type: cell-based; settings: for Comments: no inhibition/no effect to (concentration): highest concentration without effect on retention activity
From the text: as §1, §2

[1] = on protease release activity, Ala-Ala-Phe-AMC, sonicated, saponin-lysed, or viable cells
[2] = extent or nature of the effect on retention activity, in words
[3] = on protease retention activity, Gly-Phe-AFC at 100 μM final, sonicated, saponin-lysed, or viable cells
[4] = highest concentration without inhibition of release activity

In the case of `O[C@@H](CS)[C@@H](O)CS` (racemic) [DTT, 1,4-Dithio-DL-threitol], the Comments (HL-60, SK-MEL-28, U937) is reported as “Modest”, the Effect (HL-60, SK-MEL-28, U937; [1]) is reported as “Augments” and the “Protease retention activity profile in the presence of inhibitors or adjuncts” value (HL-60 and/or U937) is reported as “independent”. The Comments (HL-60 and/or U937; [2]) was “Very slightly” and the Effect (HL-60 and/or U937; [3]) was “Augments”.
For `c1cnc2c(c1)ccc1cccnc12` [1,10 Phenanthroline, 1,10-Phenathroline], the “Comments: no inhibition to (concentration)” value (HL-60, SK-MEL-28, U937; [4]) was “to 100 uM”, the Effect (HL-60, SK-MEL-28, U937; [1]) was “No inhib” and the “Comments: no inhibition/no effect to (concentration)” value (from here on “Comments: no inhibition/no effect”) (HL-60 and/or U937) was “to 100 uM”. The Effect (HL-60 and/or U937; [3]) was “No inhib”.
`O=c1oc(Cl)c(Cl)c2ccccc12` [3,4 Diisocoumarin, 3,4-diisocoumarin] was tested, and the Comments (HL-60, SK-MEL-28, U937) was “Strong”, the Effect (HL-60, SK-MEL-28, U937; [1]) was “Inhibition” and the Comments (HL-60 and/or U937; [2]) was “Kills cells”. For the same compound, the Effect (HL-60 and/or U937; [3]) was “Inhibition(?)”.
With `NCCc1ccc(S(=O)(=O)F)cc1` [AEBSF, 4-(2-Aminoethyl)benzenesulfonyl fluoride] the Comments (HL-60, SK-MEL-28, U937) was “Strong” and the Effect (HL-60, SK-MEL-28, U937; [1]) was “Inhibition”.
`Nc1ncnc2c1ncn2[C@@H]1O[C@H](COP(=O)(O)OP(=O)(O)OP(=O)(O)O)[C@@H](O)[C@H]1O` [ATP, Adenosine 5′-triphosphate] was tested, and the “Protease retention activity profile in the presence of inhibitors or adjuncts” value (HL-60 and/or U937) was “independent”, the “Comments: no inhibition/no effect” value (HL-60 and/or U937) was “to 100 uM” and the Effect (HL-60 and/or U937; [3]) was “No effect”.
For `CC(C)C[C@H](NC(=O)[C@@H](O)[C@H](N)Cc1ccccc1)C(=O)O` [Bestatin, N-[(2S,3R)-3-Amino-2-hydroxy-4-phenylbutyryl-L-leucine hydrochloride], the “Comments: no inhibition to (concentration)” value (HL-60, SK-MEL-28, U937; [4]) was “to 10 uM”, the Effect (HL-60, SK-MEL-28, U937; [1]) was “No inhib” and the “Protease retention activity profile in the presence of inhibitors or adjuncts” value (HL-60 and/or U937) was “sensitivities”. For the same compound, the Comments (HL-60 and/or U937; [2]) was “Strong” and the Effect (HL-60 and/or U937; [3]) was “Inhibition”.
With `CC(C)C[C@H](NC(=O)[C@H]1O[C@@H]1C(=O)O)C(=O)NCCCCN=C(N)N` [E-64] the “Comments: no inhibition to (concentration)” value (HL-60, SK-MEL-28, U937; [4]) was “to 100 uM”, the Effect (HL-60, SK-MEL-28, U937; [1]) was “No inhib” and the “Comments: no inhibition/no effect” value (HL-60 and/or U937) was “to 100 uM”. The Effect (HL-60 and/or U937; [3]) was “No inhib”.
With `O.O.O=C([O-])CN(CCN(CC(=O)[O-])CC(=O)O)CC(=O)O.[Na+].[Na+]` [EDTA, Edetate disodium dihyrdrate] the “Comments: no inhibition to (concentration)” value (HL-60, SK-MEL-28, U937) was “to 50 mM”, the Effect (HL-60, SK-MEL-28, U937) was “No inhib” and the Comments (HL-60 and/or U937) was “Also reduces”. The Effect (HL-60 and/or U937) was “Inhibition” and the “Protease retention activity profile in the presence of inhibitors or adjuncts” value (HL-60 and/or U937) was “sensitivities”.
`NC(N)=NCCC[C@H](NC(=O)[C@@H]1CCCN1C(=O)[C@H](N)Cc1ccccc1)C(=O)CCl` [FPR-CMK] was tested, and the Comments (HL-60, SK-MEL-28, U937) was “Moderate” and the Effect (HL-60, SK-MEL-28, U937; [1]) was “Inhibition”.
For `CC(=O)N[C@@H](CC(C)C)C(=O)N[C@@H](CC(C)C)C(=O)N[C@H](C=O)CCCNC(=N)N` [Leupeptin, N-Acetyl-L-leucyl-L-leucyl-L-argininal hemisulfate salt], the “Comments: no inhibition to (concentration)” value (HL-60, SK-MEL-28, U937; [4]) was “to 100 ug/ml” and the Effect (HL-60, SK-MEL-28, U937; [1]) was “No inhib”.
In the case of `[Cl-].[Na+]` [NaCl, sodium chloride], the Comments (HL-60 and/or U937; [2]) is reported as “Insensitivity” and the Effect (HL-60 and/or U937; [3]) is reported as “No inhib”.
In the case of `O=S(=O)(F)Cc1ccccc1` [PMSF, Phenylmethanesulfonyl fluoride], the Comments (HL-60, SK-MEL-28, U937) is reported as “Strong”, the Effect (HL-60, SK-MEL-28, U937; [1]) is reported as “Inhibition” and the “Comments: no inhibition/no effect” value (HL-60 and/or U937) is reported as “to 100 uM”. The Effect (HL-60 and/or U937; [3]) was “No inhib”.
With `CC(C)CC(=O)N[C@H](C(=O)N[C@H](C(=O)N[C@@H](CC(C)C)[C@@H](O)CC(=O)N[C@@H](C)C(=O)N[C@@H](CC(C)C)[C@@H](O)CC(=O)O)C(C)C)C(C)C` [Pepstatin, Isovaleryl-L-valyl-L-valyl-[(3S,4S)-4-amino-3-hydroxy-6-methylheptanoyl]-L-alanyl[93S,4S]-4-amino-3-hydroxy-6-methylheptanoicacid] (Isovaleryl-VV[Sta]A[Sta]-OH) the “Comments: no inhibition to (concentration)” value (HL-60, SK-MEL-28, U937; [4]) was “to 100 uM” and the Effect (HL-60, SK-MEL-28, U937; [1]) was “No inhib”.
`CC(C)C[C@H](NP(=O)(O)O[C@@H]1O[C@@H](C)[C@H](O)[C@@H](O)[C@H]1O)C(=O)N[C@@H](Cc1c[nH]c2ccccc12)C(=O)O` [Phosphoramidon, N-(α-Rhamnopyranosyloxyhyrdoxyphosphinyl)-Leu-Trp disodium salt] was tested, and the “Comments: no inhibition to (concentration)” value (HL-60, SK-MEL-28, U937; [4]) was “to 100 uM”, the Effect (HL-60, SK-MEL-28, U937; [1]) was “No inhib” and the “Comments: no inhibition/no effect” value (HL-60 and/or U937) was “to 100 uM”. For the same compound, the Effect (HL-60 and/or U937; [3]) was “No inhib”.
With `COc1ccc(C[C@H](N)C(=O)N[C@H]2[C@@H](O)[C@H](n3cnc4c(N(C)C)ncnc43)O[C@@H]2CO)cc1` [Puromycin] the “Protease retention activity profile in the presence of inhibitors or adjuncts” value (HL-60 and/or U937) was “sensitivities”, the Comments (HL-60 and/or U937; [2]) was “Very modest” and the Effect (HL-60 and/or U937; [3]) was “Inhibition”.
For “Antitrypsin: Serine (trypsin-like) protease inhibitor in Table 6”, the “Comments: no inhibition to (concentration)” value (HL-60, SK-MEL-28, U937; [4]) was “to 100 ug/ml” and the Effect (HL-60, SK-MEL-28, U937; [1]) was “No inhib”.
For Aprotinin, the “Comments: no inhibition to (concentration)” value (HL-60, SK-MEL-28, U937; [4]) was “to 100 uM” and the Effect (HL-60, SK-MEL-28, U937; [1]) was “No inhib”.
